From the supplement of paper PMC10307832

Experiments:
Experiment in all cases: relative viability (nuclei count vs DMSO), 5 days (fraction); higher = more cells survive
Midostaurin + Olaparib = compound: CO[C@@H]1[C@H](N(C)C(=O)c2ccccc2)C[C@H]2O[C@]1(C)n1c3ccccc3c3c4c(c5c6ccccc6n2c5c31)C(=O)NC4 [Midostaurin] + O=C(c1cc(Cc2n[nH]c(=O)c3ccccc23)ccc1F)N1CCN(C(=O)C2CC2)CC1 [Olaparib] (partner 8 µM)
How it was run: (§1)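 Lung cancer cell lines were seeded in 1536-well plates and dosed by pin tool the next day, with either a single drug or a fixed anchor-drug dose combined with five library-drug doses (not always all listed) spaced in √10 steps. Five days later, one step fixed the cells and stained their nuclei (final 0.05% Triton X-100, 1% formaldehyde, 1 ug/ml Hoechst), and nuclei were counted on 4× images. Relative viability is the nuclei count in treated wells divided by the count in vehicle wells, and each value is the median of duplicate plates.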

[1] = compound: COc1cc(-c2nn([C@H]3CC[C@H](N4CCN(C(C)=O)CC4)CC3)c3ncnc(N)c23)ccc1NC(=O)c1cc2ccccc2n1C + CC1(C)CCC(c2ccc(Cl)cc2)=C(CN2CCN(c3ccc(C(=O)NS(=O)(=O)c4ccc(N[C@H](CCN5CCOCC5)CSc5ccccc5)c(S(=O)(=O)C(F)(F)F)c4)cc3)CC2)C1 [Navitoclax] (partner 0.5 µM)
How it was run: as §1

[2] = compound: COc1cc(-c2nn([C@H]3CC[C@H](N4CCN(C(C)=O)CC4)CC3)c3ncnc(N)c23)ccc1NC(=O)c1cc2ccccc2n1C + CC(=O)c1c(C)c2cnc(Nc3ccc(N4CCNCC4)cn3)nc2n(C2CCCC2)c1=O [Palbociclib] (partner 0.5 µM)
How it was run: as §1

Midostaurin + Tozasertib = compound: CO[C@@H]1[C@H](N(C)C(=O)c2ccccc2)C[C@H]2O[C@]1(C)n1c3ccccc3c3c4c(c5c6ccccc6n2c5c31)C(=O)NC4 [Midostaurin] + Cc1cc(Nc2cc(N3CCN(C)CC3)nc(Sc3ccc(NC(=O)C4CC4)cc3)n2)n[nH]1 [Tozasertib] (partner 0.1 µM)
How it was run: as §1

[3] = compound: COc1cc(-c2nn([C@H]3CC[C@H](N4CCN(C(C)=O)CC4)CC3)c3ncnc(N)c23)ccc1NC(=O)c1cc2ccccc2n1C + C[C@]1(O)C[C@@H](c2nc(-c3ccc4ccc(-c5ccccc5)nc4c3)c3c(N)nccn32)C1 [Linsitinib] (partner 1 µM)
How it was run: as §1

Cell Line	relative viability (Midostaurin + Olaparib; first compound 0.01 µM)	relative viability (Midostaurin + Olaparib; first compound 0.03162 µM)	relative viability (Midostaurin + Olaparib; first compound 0.1 µM)	relative viability (Midostaurin + Olaparib; first compound 0.3162 µM)	relative viability ([1]; first compound 0.0128 µM)	relative viability ([1]; first compound 0.128 µM)	relative viability ([1]; first compound 1.28 µM)	relative viability ([2]; first compound 0.0128 µM)	relative viability ([2]; first compound 0.128 µM)	relative viability ([2]; first compound 1.28 µM)	relative viability (Midostaurin + Tozasertib; first compound 0.01 µM)	relative viability (Midostaurin + Tozasertib; first compound 0.03162 µM)	relative viability (Midostaurin + Tozasertib; first compound 0.1 µM)	relative viability (Midostaurin + Tozasertib; first compound 0.3162 µM)	relative viability ([3]; first compound 0.0128 µM)	relative viability ([3]; first compound 0.128 µM)	relative viability ([3]; first compound 1.28 µM)	relative viability ([1]; first compound 0.04048 µM)	relative viability ([2]; first compound 0.04048 µM)	relative viability ([3]; first compound 0.04048 µM)
NCI-H727	0.659	0.62	0.628	0.68	0.408	0.463	0.289	0.615	0.553	0.583	0.704	0.704	0.575	0.468	0.401	0.162	0.33			
H3255	0.515	0.538	0.498	0.533	0.398	0.466	0.259	0.324	0.349	0.318	0.624	0.635	0.61	0.695	1.04	0.887	0.663	0.441	0.316	0.935
SK-MES-1	0.634	0.595	0.66	0.473	1.37	1.14	1.15	0.298	0.319	0.277	0.803	0.819	0.741	0.578	1.13	1.07	1.06	1.39	0.374	1.17
NCI-H1437	0.618	0.665	0.629	0.516	1.09	1.05	1.02	0.302	0.281	0.283	0.453	0.477	0.401	0.403	0.987	0.986	0.523	1.1	0.326	1.08
LU99A	0.261	0.295	0.257	0.207	0.854	0.773	0.815	0.419	0.389	0.377	0.227	0.304	0.259	0.244	0.555	0.543	0.524	0.842	0.435	0.563
HCC-827	0.582	0.628	0.589	0.654	1.01	1.1	1.04	0.492	0.484	0.218	0.407	0.352	0.4	0.416	0.957	0.958	0.995	1.06	0.455	1.02
LK-2	0.686	0.612	0.878	0.791	1.04	0.621	0.685	0.698	0.834	0.518	0.175	0.147	0.18	0.173	0.554	0.461	0.231	0.861	0.858	0.522
HCC-366	0.336	0.358	0.302	0.117	1.09	1.05	0.821	0.485	0.403	0.256	0.146	0.126	0.0694	0.0567	0.531	0.531	0.257	1	0.431	0.513
BEN	1.12	1.24	0.928	1.13	0.062	0.0628	0.0568	0.485	0.435	0.457	0.501	0.551	0.401	0.459	0.815	0.851	0.644	0.261	0.466	0.926
NCI-H23	0.317	0.296	0.296	0.223	0.825	0.716	0.77	0.47	0.508	0.4	0.344	0.575	0.348	0.259	0.613	0.612	0.49	0.549	0.519	0.417
NCI-H1395	0.44	0.468	0.454	0.465	0.963	1.16	0.881	0.656	0.589	0.497	0.726	0.785	0.708	0.769	0.965	0.916	0.768	1.26	0.647	1.21
201T	0.833	0.801	0.815	0.86	1.27	1.22	1.03	0.353	0.337	0.294	0.974	0.913	0.915	0.891	0.979	0.927	0.665	1.3	0.402	1.05
NCI-H460	0.406	0.417	0.314	0.382	1.2	1.03	0.862	0.17	0.148	0.153	0.448	0.492	0.44	0.415	0.662	0.669	0.344	1.41	0.133	1.09
HCC-15	0.747	0.734	0.678	0.641	0.755	0.672	0.454	0.555	0.839	0.705	0.449	0.419	0.249	0.324	0.922	0.815	0.662	0.59	0.663	0.807
NCI-H441	0.475	0.677	0.458	0.427	0.868	0.91	0.581	0.248	0.228	0.152	0.592	0.631	0.564	0.401	0.555	0.603	0.491	0.798	0.167	0.612
EPLC-272H	0.659	0.729	0.658	0.372	1.13	0.983	0.871	0.352	0.337	0.301	0.261		0.186	0.311	1.45	0.878	1.04	1.05	0.327	1.21
